From EP0527889B1, “QUINOLIZINONE TYPE COMPOUNDS” (priority 1990, dated 1991)
≈ marks a conversion by molar mass, not a printed value. Counter-ions that a name gives are not always drawn.

Experiments:
Experiment in all cases: In vitro antibacterial activity, MIC by agar dilution
Format in all cases: cell-based
[1] = system: Pseudomonas aeruginosa BMH10; details: BHI agar, 35-37°C, 20-24 hours, unit assumed
Experimental: (§1) Each plate was inoculated with 1:100 (or 1:10 for slow growing strains, primarily Micrococcus and Streptococcus) dilutions of up to 32 different microorganisms, using a Steers replicator block calibrated to deliver approximately 10^4 colony forming units (CFUs). The inoculated plates were incubated at from about 35°C to about 37°C for approximately 20-24 hours. In addition, a control plate using BHI agar containing no test compound was prepared and incubated at the beginning and at the end of each test. Ciprofloxacin was used as the control antibiotic.
(§2) The MIC was defined as the lowest concentration of test compound yielding no growth (a slight haze or sparsely isolated colonies at the inoculum spot) as compared to the growth control containing no test compound.

[2] = system: Staphylococcus aureus NCTC 10649; details: BHI agar, 35-37°C, 20-24 hours, unit assumed
Experimental: as §1, §2

[3] = system: Escherichia coli DC-2; details: BHI agar, 35-37°C, 20-24 hours, unit assumed
Experimental: as §1, §2

[4] = system: Escherichia coli KNK 437; details: BHI agar, 35-37°C, 20-24 hours, unit assumed
Experimental: as §1, §2

[5] = system: Pseudomonas cepacia 296I; details: BHI agar, 35-37°C, 20-24 hours, unit assumed
Experimental: as §1, §2

[6] = system: Klebsiella pneumoniae ATCC 8045; details: BHI agar, 35-37°C, 20-24 hours, unit assumed
Experimental: as §1, §2

[7] = system: Enterococcus faecium ATCC 8043; details: BHI agar, 35-37°C, 20-24 hours, unit assumed
Experimental: as §1, §2

[8] = system: Streptococcus pyrogenes EES61; details: BHI agar, 35-37°C, 20-24 hours, unit assumed
Experimental: as §1, §2

[9] = system: Pseudomonas aeruginosa K799/61; details: BHI agar, 35-37°C, 20-24 hours, unit assumed
Experimental: as §1, §2

[10] = system: Streptococcus agalactaciae CMX 508; details: BHI agar, 35-37°C, 20-24 hours, unit assumed
Experimental: as §1, §2

[11] = system: Providencia stuartii CMX 640; details: BHI agar, 35-37°C, 20-24 hours, unit assumed
Experimental: as §1, §2

[12] = system: Micrococcus luteus ATCC 9341; details: BHI agar, 35-37°C, 20-24 hours, unit assumed
Experimental: as §1, §2

[13] = system: Staphylococcus aureus CMX 553; details: BHI agar, 35-37°C, 20-24 hours, unit assumed
Experimental: as §1, §2

[14] = system: Escherichia coli SS; details: BHI agar, 35-37°C, 20-24 hours, unit assumed
Experimental: as §1, §2

[15] = system: Staphylococcus aureus ATCC 6538P; details: BHI agar, 35-37°C, 20-24 hours, unit assumed
Experimental: as §1, §2

[16] = system: Pseudomonas aeruginosa A5007; details: BHI agar, 35-37°C, 20-24 hours, unit assumed
Experimental: as §1, §2

[17] = system: Enterobacter aerogenes ATCC 13048; details: BHI agar, 35-37°C, 20-24 hours, unit assumed
Experimental: as §1, §2

[18] = system: Micrococcus luteus ATCC 4698; details: BHI agar, 35-37°C, 20-24 hours, unit assumed
Experimental: as §1, §2

[19] = system: Acinetobacter calcoaceticus CMX 669; details: BHI agar, 35-37°C, 20-24 hours, unit assumed
Experimental: as §1, §2

[20] = system: Staphylococcus aureus A5177; details: BHI agar, 35-37°C, 20-24 hours, unit assumed
Experimental: as §1, §2

[21] = system: Staphylococcus aureus 642A; details: BHI agar, 35-37°C, 20-24 hours, unit assumed
Experimental: as §1, §2

[22] = system: Pseudomonas aeruginosa K799/WT; details: BHI agar, 35-37°C, 20-24 hours, unit assumed
Experimental: as §1, §2

[23] = system: Staphylococcus epidermidis 3519; details: BHI agar, 35-37°C, 20-24 hours, unit assumed
Experimental: as §1, §2

[24] = system: Streptococcus pyrogenes CONST; details: BHI agar, 35-37°C, 20-24 hours, unit assumed
Experimental: as §1, §2

[25] = system: Streptococcus pyrogenes 2548 INDUC; details: BHI agar, 35-37°C, 20-24 hours, unit assumed
Experimental: as §1, §2

[26] = system: Streptococcus bovis A5169; details: BHI agar, 35-37°C, 20-24 hours, unit assumed
Experimental: as §1, §2

[27] = system: Escherichia coli JUHL; details: BHI agar, 35-37°C, 20-24 hours, unit assumed
Experimental: as §1, §2

[28] = system: Escherichia coli H560; details: BHI agar, 35-37°C, 20-24 hours, unit assumed
Experimental: as §1, §2

[29] = system: Staphylococcus aureus 1775; details: BHI agar, 35-37°C, 20-24 hours, trifluoroacetic acid salt, unit assumed
Experimental: as §1, §2

Compound	MIC values [1]	MIC values [3]	MIC values [4]	MIC values [5]	MIC values [6]	MIC values [7]	MIC values [8]	MIC values [9]	MIC values [10]	MIC values [11]	MIC values [12]	MIC values [13]	MIC values [14]	MIC values [15]	MIC values [16]	MIC values [17]	MIC values [18]	MIC values [19]	MIC values [20]	MIC values [22]	also measured
CN1CCN(c2nc3c(-c4ccc(F)cc4)cc(C(=O)O)c(=O)n3cc2F)CC1 [Example 1, 3-Fluoro-9-(4-fluorophenyl)-2-(4-methylpiperazin-1-yl)-6H-6-oxo-pyrido[1,2-a]pyrimidine-7-carboxylic acid]	6.2 µg/mL (≈ 15.5 µM)	12.5 µg/mL (≈ 31.2 µM)	6.2 µg/mL (≈ 15.5 µM)	25 µg/mL (≈ 62.4 µM)	0.2 µg/mL (≈ 0.5 µM)	25 µg/mL (≈ 62.4 µM)	6.2 µg/mL (≈ 15.5 µM)	0.39 µg/mL (≈ 0.974 µM)	12.5 µg/mL (≈ 31.2 µM)	25 µg/mL (≈ 62.4 µM)	50 µg/mL (≈ 125 µM)	0.78 µg/mL (≈ 1.95 µM)	< 0.05 µg/mL	0.39 µg/mL (≈ 0.974 µM)	6.2 µg/mL (≈ 15.5 µM)	0.78 µg/mL (≈ 1.95 µM)	25 µg/mL (≈ 62.4 µM)	0.78 µg/mL (≈ 1.95 µM)	0.78 µg/mL (≈ 1.95 µM)	3.1 µg/mL (≈ 7.74 µM)	MIC values [2]: 0.39 µg/mL (≈ 0.974 µM); MIC values [21]: 0.78 µg/mL (≈ 1.95 µM); MIC values [23]: 0.78 µg/mL (≈ 1.95 µM); MIC values [24]: 6.2 µg/mL (≈ 15.5 µM); MIC values [25]: 3.1 µg/mL (≈ 7.74 µM); MIC values [26]: 25 µg/mL (≈ 62.4 µM); MIC values [27]: 0.39 µg/mL (≈ 0.974 µM)
CCc1cc(C(=O)O)c(=O)n2ccc(N3CCNC(C)C3)cc12.Cl (stereo not shown) [Example 64, 1-Ethyl-8-(3-methyl-1-piperazinyl)-4H-quinolizin-4-one-3-carboxylic acid hydrochloride]	25 µg/mL	100 µg/mL	100 µg/mL	100 µg/mL	6.2 µg/mL	100 µg/mL	50 µg/mL	6.2 µg/mL	50 µg/mL	> 100 µg/mL	25 µg/mL	50 µg/mL	1.56 µg/mL	25 µg/mL	50 µg/mL	6.2 µg/mL	25 µg/mL	50 µg/mL	50 µg/mL	25 µg/mL	MIC values [23]: 50 µg/mL; MIC values [24]: 50 µg/mL; MIC values [25]: 50 µg/mL; MIC values [26]: 25 µg/mL; MIC values [27]: 6.2 µg/mL; MIC values [28]: 12.5 µg/mL
CCc1cc(C(=O)O)c(=O)n2ccc(N3CCN(C)CC3)cc12.Cl [Example 65, 1-Ethyl-8-(4-methylpiperazin-1-yl)-4H-quinolizin-4-one-3-carboxylic acid hydrochloride]	25 µg/mL	> 100 µg/mL	100 µg/mL	100 µg/mL	6.2 µg/mL	50 µg/mL	100 µg/mL	25 µg/mL	100 µg/mL	> 100 µg/mL	25 µg/mL	50 µg/mL	1.56 µg/mL	12.5 µg/mL	25 µg/mL	12.5 µg/mL	25 µg/mL	25 µg/mL	25 µg/mL	25 µg/mL	MIC values [23]: 25 µg/mL; MIC values [24]: 50 µg/mL; MIC values [25]: 50 µg/mL; MIC values [26]: 100 µg/mL; MIC values [27]: 12.5 µg/mL
NC1CCN(c2nc3c(-c4ccc(F)cc4F)cc(C(=O)O)c(=O)n3cc2F)C1 (stereo not shown) [Example 162, 2-(3-Aminopyrrolidin-1-yl)-9-(2,4-difluorophenyl)-3-fluoro-6H-6-oxopyrido[1,2-a]pyrimidine-7-carboxylic acid trifluoroacetic acid salt]	–	–	–	–	–	–	–	–	–	–	–	–	–	–	–	–	–	–	–	–	MIC values ([2]; trifluoroacetic acid salt): 0.1 µg/mL; MIC values ([3]; trifluoroacetic acid salt): 0.39 µg/mL; MIC values ([4]; trifluoroacetic acid salt): 0.39 µg/mL; MIC values ([5]; trifluoroacetic acid salt): 6.2 µg/mL; MIC values ([6]; trifluoroacetic acid salt): 0.02 µg/mL; MIC values ([10]; trifluoroacetic acid salt): 0.78 µg/mL; MIC values ([12]; trifluoroacetic acid salt): 6.2 µg/mL; MIC values [29]: > 100 µg/mL; MIC values ([13]; trifluoroacetic acid salt): 0.2 µg/mL; MIC values ([15]; trifluoroacetic acid salt): 0.1 µg/mL; MIC values ([16]; trifluoroacetic acid salt): 0.39 µg/mL; MIC values ([19]; trifluoroacetic acid salt): 0.1 µg/mL; MIC values ([21]; trifluoroacetic acid salt): 0.2 µg/mL; MIC values ([22]; trifluoroacetic acid salt): 0.39 µg/mL; MIC values ([23]; trifluoroacetic acid salt): 0.2 µg/mL; MIC values ([25]; trifluoroacetic acid salt): 0.2 µg/mL
